Results from paper PMC7930286 (Heliyon, 2021).
Each block holds one molecule with its values, some of them ahead of it.

Columns and labels:
[1] = test system: α-amylase; assay: Inhibitory assay of α-amylase; assay type: biochemical; conditions: for Alpha-amylase % inhibition (mean ± SEM): n = 3
[2] = DPPH free radical scavenging assay; conditions: for DPPH Percent inhibition (mean ± S.E.M): n = 3
[3] = ABTS free radical scavenging assay; conditions: for ABTS percent inhibition (mean ± S.E.M): n = 3
[4] = target: butyrylcholinesterase (BChE) (Homo sapiens, UniProt P06276); assay: Anticholinesterase; assay type: biochemical; conditions: for inhibition at 62.5 µg/mL: read-out: Percent BChE inhibition (mean ± SEM), 62.5 μg/mL; for inhibition at 125 µg/mL: read-out: Percent BChE inhibition (mean ± SEM), 125 μg/mL; for inhibition at 250 µg/mL: read-out: Percent BChE inhibition (mean ± SEM), 250 μg/mL; for inhibition at 500 µg/mL: read-out: Percent BChE inhibition (mean ± SEM), 500 μg/mL; for inhibition at 1000 µg/mL: read-out: Percent BChE inhibition (mean ± SEM), 1000 μg/mL
Chain of butyrylcholinesterase (BChE) (P06276 29-602, species assumed): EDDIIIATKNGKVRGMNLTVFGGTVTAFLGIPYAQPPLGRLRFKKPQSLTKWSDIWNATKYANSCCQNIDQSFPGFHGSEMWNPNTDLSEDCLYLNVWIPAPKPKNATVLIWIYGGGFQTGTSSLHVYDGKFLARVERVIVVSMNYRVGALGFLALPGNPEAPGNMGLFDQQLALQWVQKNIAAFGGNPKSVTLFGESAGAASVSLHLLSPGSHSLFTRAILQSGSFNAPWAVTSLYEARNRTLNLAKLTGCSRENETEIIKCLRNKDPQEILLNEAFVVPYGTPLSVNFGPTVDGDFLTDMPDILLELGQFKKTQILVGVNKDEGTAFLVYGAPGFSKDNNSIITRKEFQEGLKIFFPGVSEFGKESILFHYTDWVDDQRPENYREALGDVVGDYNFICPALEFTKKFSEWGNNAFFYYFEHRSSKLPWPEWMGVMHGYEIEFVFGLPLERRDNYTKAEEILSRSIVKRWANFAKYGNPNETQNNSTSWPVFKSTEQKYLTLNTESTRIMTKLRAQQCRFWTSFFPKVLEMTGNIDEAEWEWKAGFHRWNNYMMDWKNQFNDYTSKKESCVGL

[5] = target: α-glucosidase; assay: Inhibitory assay of α-glucosidase; assay type: biochemical; conditions: for Alpha-glucosidase %inhibition (mean ± SEM): n = 3
[6] = Solubility description of isolated compounds; assay type: physicochemical
[7] = target: acetylcholinesterase (AChE) (Homo sapiens, UniProt P22303); assay: biochemical; conditions: for inhibition at 62.5 µg/mL / inhibition at 250 µg/mL / inhibition at 500 µg/mL / inhibition at 1000 µg/mL: read-out: Percent AChE inhibition (mean ± SEM)
Chain of acetylcholinesterase (AChE) (P22303 32-614, species assumed): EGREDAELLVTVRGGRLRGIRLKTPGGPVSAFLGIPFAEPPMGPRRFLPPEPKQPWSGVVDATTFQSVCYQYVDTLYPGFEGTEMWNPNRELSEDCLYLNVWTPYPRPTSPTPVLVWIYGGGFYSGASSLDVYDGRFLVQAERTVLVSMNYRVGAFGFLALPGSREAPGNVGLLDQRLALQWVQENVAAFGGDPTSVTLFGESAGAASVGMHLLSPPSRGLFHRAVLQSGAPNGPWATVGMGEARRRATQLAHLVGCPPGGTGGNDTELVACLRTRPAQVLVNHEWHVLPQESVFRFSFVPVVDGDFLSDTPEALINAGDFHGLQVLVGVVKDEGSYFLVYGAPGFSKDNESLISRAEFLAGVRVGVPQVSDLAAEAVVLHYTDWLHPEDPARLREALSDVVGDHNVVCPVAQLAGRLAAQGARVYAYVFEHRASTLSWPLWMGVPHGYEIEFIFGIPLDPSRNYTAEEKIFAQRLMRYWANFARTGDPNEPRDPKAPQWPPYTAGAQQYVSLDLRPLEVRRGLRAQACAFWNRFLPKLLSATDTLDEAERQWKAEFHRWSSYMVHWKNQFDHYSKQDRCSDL

- Alpha-amylase % inhibition (mean ± SEM) ([1]; 125 μg/mL): 57.0 ± 1.2%
- Alpha-amylase % inhibition (mean ± SEM) ([1]; 250 μg/mL): 66.4 ± 1.2%
- Alpha-amylase % inhibition (mean ± SEM) ([1]; 500 μg/mL): 77.1 ± 1.4%
- Alpha-amylase % inhibition (mean ± SEM) ([1]; 1000 μg/mL): 92.1 ± 0.8%
SMILES: C[C@H]1O[C@H](O[C@H]2[C@H](O)[C@@H](O)[C@@H](O[C@H]3[C@H](O)[C@@H](O)C(O)O[C@@H]3CO)O[C@@H]2CO)[C@H](O)[C@@H](O)[C@@H]1N[C@H]1C=C(CO)[C@@H](O)[C@H](O)[C@H]1O (some centres unmarked) [Acarbose, reference compound]

- DPPH IC50 [2]: 38 µg/mL
- ABTS IC50 [3]: 39 µg/mL
SMILES: O=C1O[C@H]([C@@H](O)CO)C(O)=C1O [Ascorbic acid, reference compound]
- DPPH Percent inhibition (mean ± S.E.M) ([2]; 62.5 μg/mL): 52.2 ± 2.3%
- DPPH Percent inhibition (mean ± S.E.M) ([2]; 125 μg/mL): 63.2 ± 1.1%
- DPPH Percent inhibition (mean ± S.E.M) ([2]; 250 μg/mL): 73.8 ± 2.2%
- DPPH Percent inhibition (mean ± S.E.M) ([2]; 500 μg/mL): 84.1 ± 0.4%
- DPPH Percent inhibition (mean ± S.E.M) ([2]; 1000 μg/mL): 93.2 ± 0.1%
- ABTS percent inhibition (mean ± S.E.M) ([3]; 62.5 μg/mL): 52.1 ± 1.1%
- ABTS percent inhibition (mean ± S.E.M) ([3]; 250 μg/mL): 72.1 ± 0.4%
- ABTS percent inhibition (mean ± S.E.M) ([3]; 500 μg/mL): 83.1 ± 1.1%
- ABTS percent inhibition (mean ± S.E.M) ([3]; 1000 μg/mL): 93.0 ± 0.7%

SMILES: COc1ccc(C(=O)O)cc1OC [Compound VI, 3,4-dimethoxy benzoic acid]
- DPPH IC50 [2]: 67 µg/mL
- DPPH Percent inhibition (mean ± S.E.M) ([2]; 62.5 μg/mL): 48.2 ± 2.3 ^ns %
- DPPH Percent inhibition (mean ± S.E.M) ([2]; 125 μg/mL): 54.7 ± 2.1∗∗ %
- DPPH Percent inhibition (mean ± S.E.M) ([2]; 250 μg/mL): 63.7 ± 0.8∗∗∗∗ %
- DPPH Percent inhibition (mean ± S.E.M) ([2]; 500 μg/mL): 72.3 ± 0.3∗∗∗∗ %
- DPPH Percent inhibition (mean ± S.E.M) ([2]; 1000 μg/mL): 82.1 ± 1.2∗∗∗∗ %
- ABTS IC50 [3]: 67 µg/mL
- ABTS percent inhibition (mean ± S.E.M) ([3]; 62.5 μg/mL): 48.2 ± 1.3∗∗ %
- ABTS percent inhibition (mean ± S.E.M) ([3]; 250 μg/mL): 61.1 ± 1.4∗∗∗ %
- ABTS percent inhibition (mean ± S.E.M) ([3]; 500 μg/mL): 71.0 ± 1.6∗∗∗∗ %
- ABTS percent inhibition (mean ± S.E.M) ([3]; 1000 μg/mL): 81.2 ± 1.0∗∗∗∗ %
- Percent BChE inhibition (mean ± SEM) ([4]; 1000 μg/mL, n = 3): 79.8 ± 1.4∗∗ %
- inhibition at 62.5 µg/mL ([4]; n = 3): 47 ± 1.1%
- inhibition at 125 µg/mL ([4]; n = 3): 53.5 ± 1.6%
- inhibition at 250 µg/mL ([4]; n = 3): 61.4 ± 0.3%
- inhibition at 500 µg/mL ([4]; n = 3): 71.1 ± 1.6%
- Alpha-glucosidase IC50 [5]: 84 µg/mL
- Alpha-glucosidase %inhibition (mean ± SEM) ([5]; 125 μg/mL): 54.3 ± 1.5∗∗∗ %
- Alpha-glucosidase %inhibition (mean ± SEM) ([5]; 250 μg/mL): 62.5 ± 2.4∗∗∗ %
- Alpha-glucosidase %inhibition (mean ± SEM) ([5]; 500 μg/mL): 68.2 ± 1.7∗∗ %
- Alpha-glucosidase %inhibition (mean ± SEM) ([5]; 1000 μg/mL): 84.6 ± 1.5∗∗∗∗ %
- Alpha-amylase IC50 [1]: 112 µg/mL
- Alpha-amylase % inhibition (mean ± SEM) ([1]; 125 μg/mL): 50.3 ± 2.4∗∗ %
- Alpha-amylase % inhibition (mean ± SEM) ([1]; 250 μg/mL): 59.1 ± 1.9∗∗∗∗ %
- Alpha-amylase % inhibition (mean ± SEM) ([1]; 500 μg/mL): 71.3 ± 1.7∗∗∗∗ %
- Alpha-amylase % inhibition (mean ± SEM) ([1]; 1000 μg/mL): 79.0 ± 3.2∗∗∗∗ %
- solubility (description) [6]: soluble in organic solvents
- IC50 [7]: 494 µM
- inhibition at 62.5 µg/mL [7]: 47.2 ± 1.5%
- inhibition at 250 µg/mL [7]: 62.1 ± 2%
- inhibition at 500 µg/mL [7]: 71.2 ± 1.8%
- inhibition at 1000 µg/mL [7]: 80.7 ± 1.1%

SMILES: CCCCCCCOc1ccc(C(=O)O)cc1 [Compound VII, 4-heptyloxy benzoic acid]
- DPPH IC50 [2]: 118 µg/mL
- DPPH Percent inhibition (mean ± S.E.M) ([2]; 62.5 μg/mL): 46.7 ± 2.1∗∗ %
- DPPH Percent inhibition (mean ± S.E.M) ([2]; 125 μg/mL): 51.9 ± 1.3∗∗ %
- DPPH Percent inhibition (mean ± S.E.M) ([2]; 250 μg/mL): 62.5 ± 1.1∗∗∗∗ %
- DPPH Percent inhibition (mean ± S.E.M) ([2]; 500 μg/mL): 71.2 ± 1.3∗∗∗∗ %
- DPPH Percent inhibition (mean ± S.E.M) ([2]; 1000 μg/mL): 80.4 ± 1.1∗∗∗∗ %
- ABTS IC50 [3]: 115 µg/mL
- ABTS percent inhibition (mean ± S.E.M) ([3]; 62.5 μg/mL): 46.1 ± 1.9∗∗ %
- ABTS percent inhibition (mean ± S.E.M) ([3]; 250 μg/mL): 62.1 ± 1.3∗∗∗ %
- ABTS percent inhibition (mean ± S.E.M) ([3]; 500 μg/mL): 71.2 ± 2.1∗∗∗∗ %
- ABTS percent inhibition (mean ± S.E.M) ([3]; 1000 μg/mL): 80.1 ± 1.0∗∗∗∗ %
- IC50 ([4]; BChE IC50): 381 µM
- inhibition at 62.5 µg/mL ([4]; n = 3): 47.2 ± 1.2%
- inhibition at 125 µg/mL ([4]; n = 3): 53.4 ± 1.1%
- inhibition at 250 µg/mL ([4]; n = 3): 62.1%
- inhibition at 500 µg/mL ([4]; n = 3): 71.1 ± 0.8%
- inhibition at 1000 µg/mL ([4]; n = 3): 80 ± 1.1%
- Alpha-glucosidase IC50 [5]: 108 µg/mL
- Alpha-amylase IC50 [1]: 110 µg/mL
- Alpha-amylase % inhibition (mean ± SEM) ([1]; 125 μg/mL): 51.4 ± 1.5∗∗∗ %
- Alpha-amylase % inhibition (mean ± SEM) ([1]; 250 μg/mL): 61.2 ± 2.2∗ %
- Alpha-amylase % inhibition (mean ± SEM) ([1]; 500 μg/mL): 64.5 ± 2.8∗∗ %
- Alpha-amylase % inhibition (mean ± SEM) ([1]; 1000 μg/mL): 73.3 ± 1.1∗∗∗∗ %
- solubility (description) [6]: soluble in organic solvents
- IC50 [7]: 377 µM
- inhibition at 62.5 µg/mL [7]: 47.8 ± 1.3%
- inhibition at 250 µg/mL [7]: 62.3 ± 1.1%
- inhibition at 500 µg/mL [7]: 71.5 ± 1.6%
- inhibition at 1000 µg/mL [7]: 80.1 ± 1.2%

SMILES: COc1ccc2c3c1O[C@H]1C[C@@H](O)C=C[C@@]31CCN(C)C2 [Galantamine, reference compound]
- inhibition at 62.5 µg/mL ([4]; n = 3): 54.1 ± 1%
- inhibition at 250 µg/mL ([4]; n = 3): 71.8 ± 1.5%
- inhibition at 500 µg/mL ([4]; n = 3): 81.8 ± 1.4%
- inhibition at 1000 µg/mL ([4]; n = 3): 92 ± 0.8%
